Test results from patent US20250034196A1, “ESTER DERIVATIVES OF N4-HYDROXYCYTIDINE AND USE THEREOF” (priority 2021, published 2025).

How the values were obtained:
[1] = in vitro; type: in vitro ADME; settings: plasma
Description: (§1) Preparation of Solutions: Stock solution (10 mM) of each of test compounds was prepared in DMSO. The stock solution for each compound was then diluted into 100 μM with acetonitrile.
Plasma Incubations: Plasma incubations were conducted in duplicate in 96-well plate at 37° C. Plasma was prewarmed in a total volume of 198 μL for 5 min at 37° C., then added 2 μL of 100 μM test compound into an incubation well containing plasma, pipette-mixed to achieve a homogenous suspension and immediately transferred 20 μL incubate as a 0 min sample to wells in a “Quenching” plate followed by adding 200 μL of acetonitrile with metolazone as internal standard (IS) and pipette-mixing. At 2, 5, 60, and 90 min, pipette-mixed the incubate and serially transfer samples of 20 μL incubate per time point to wells in a separate “Quenching” plate followed by adding 200 μL of acetonitrile with metolazone as IS and pipette-mixing.
(§2) Sample Analysis: The 96-well plate was centrifuged at 6000 g for 10 min. The supernatant was injected onto the LC-MS/MS system for analysis.

[2] = in vitro; type: in vitro ADME; settings: microsomes, pH 7.4
Description: as §1
(§3) Microsome Incubations: Incubation mixtures were prepared in a total volume of 200 μL with final component concentrations as follows: 0.1M PBS (pH 7.4), NADPH (2 mM) and liver microsomes (0.2 mg/mL) as well as test compound (1 μM) or Molnupiravir (1 μM) as a positive control, wherein the NADPH was added after a 5-min preincubation of all other components at 37° C. Pipette-mixed to achieve a homogenous suspension and immediately transferred 20 μL incubate as a 0 min sample to wells in a “Quenching” plate followed by adding 200 μL of acetonitrile with metolazone as IS and pipette-mixing. At 2, 5, 10, and 45 min, pipette-mixed the incubate and serially transfer samples of 20 μL incubate per time point to wells in a separate “Quenching” plate followed by adding 200 μL of acetonitrile with metolazone as IS and pipette-mixing.
as §2

[3] = Microsome stability; type: in vitro ADME, Monkey; settings: monkey, microsomes, pH 7.4
Description: as §1, §3, §2

[4] = system: SARS-CoV-2, Hongkong strain; type: in vivo, K18 hACE2 transgenic mice
[5] = in vivo; parameters: species or system Beagle Dogs; settings: dog, po; for Cmax: Cmax of EX-2/CH2101; for Tmax: Tmax of EX-2/CH2101; for AUC(0-t): AUClast of EX-2/CH2101; for concentration at 0.25 hr / concentration at 0.5 hr / concentration at 1 hr / concentration at 0.083 hr: Plasma concentration of EX-2/CH2101
Description: Example 174: Pharmacokinetic Study of EX-2 (CH2101), Molnupiravir (CH2017) and its Metabolite NHC (CH2018) Following a Single PO Administration of EX-2 (CH2101) or Molnupiravir (CH2017) in Male and Female Beagle Dogs
Both test compounds were prepared in 1% methyl cellulose (400 cps, SIGMA, SLCF9694) solution in purified water.
A total of 6 male+6 female Beagle Dogs, approximately 7-13 kg of bodyweight, were originally purchased from Marshall Biotechnology Co., Ltd. The animals were fasted overnight prior to dosing and food was re-provided after 4 hours post dosing.
The animals were restrained manually, and approximately 1 mL of blood at each time point was collected into pre-cooled EDTA-K2 tubes via cephalic or saphenous veins. Blood samples were centrifuged at 4° C. (4000 rpm. 5 min) to obtain plasma within 30 min after sample collection. All samples were stored at approximately −80° C. until analysis. The backup samples will be discarded after the in vivo experiment has been completed for two months unless requested.

[6] = in vitro; settings: African green monkey

## CC(=O)ONc1ccn([C@@H]2O[C@H](CO)[C@@H](O)[C@H]2O)c(=O)n1 [EX-2]
[1]; dog
  half-life at 1 µM: 79.1 min
[1]; human
  half-life at 1 µM: 11.6 min
[1]; monkey
  half-life at 1 µM: 29.3 min
[1]; mouse
  half-life at 1 µM: 7.4 min
[1]; rat
  half-life at 1 µM: 87.8 min
[2]; dog
  half-life at 1 µM: 76.3 min
[2]; human
  half-life at 1 µM: 33.5 min
[2]; mouse
  half-life at 1 µM: 16.2 min
[2]; rat
  half-life at 1 µM: 288 min
[3]
  half-life at 1 µM: 50.8 min
[4]; 14-day study, twice daily days 0-6, CH2101 450 mg/kg PO, Remdesivir 25 mg/kg SC
  Survival proportions: 100%
[4]; 450 mpk PO twice daily
  Antiviral efficacy in vivo (conclusion): optimal antiviral efficacy in vivo
[4]; CH2101 450 mpk PO twice daily days 0-6
  Clinical symptoms (observation): no infection-related clinical symptom was observed
[4]; EX-2/CH2101 450 mpk PO twice daily days 0-6
  Body weights (observation): without notable body weight loss observed
[4]; day 5, plaque assay, mean, twice daily days 0-4, CH2101 450 mpk PO, Remdesivir 25 mpk SC
  Virus titer in lung: 2.64 Log 10 plaque#/g lung
[4]; day 5, CH2101 450 mpk PO, Remdesivir 25 mpk SC
  Virus titer in lung, mean difference vs. group 1 (Vehicle group): 3.31 Log
[4]; twice daily days 0-6, CH2101 450 mg/kg PO, Remdesivir 25 mg/kg SC
  Median survival time: Undefined
[5]; both sexes, Beagle, 20 mg/kg
  Cmax: 0.0128 µg/mL
  Tmax: 15 min
[5]; both sexes, beagle, 10 mg/kg
  AUC(0-t): 5.07 ng·h/mL
  Cmax: 0.0155 µg/mL
  concentration at 0.25 hr: 0.016 µg/mL
  concentration at 0.5 hr: 0.0107 µg/mL
  concentration at 1 hr: 0.0122 µg/mL
  Tmax: 26.3 min
[5]; both sexes, beagle, 20 mg/kg
  AUC(0-t): 5.43 ng·h/mL
  concentration at 0.083 hr: 0.0112 µg/mL
  concentration at 0.25 hr: 0.0128 µg/mL
  concentration at 0.5 hr: 0.0105 µg/mL
  concentration at 1 hr: 0.0113 µg/mL
[5]; both, Beagle, 20 mg/kg, 6 hr
  Plasma concentration of EX-1/NHC/CH2018: 0.401 µg/mL
[5]; both, Beagle, 20 mg/kg, 8 hr
  Plasma concentration of EX-1/NHC/CH2018: 0.138 µg/mL
[5]; both, Beagle, 20 mg/kg, 24 hr
  Plasma concentration of EX-1/NHC/CH2018: 0.0177 µg/mL
[5]; both, beagle, 20 mg/kg
  AUCmale/female of EX-1/NHC/CH2018: 69.2%
  AUCmale/female of EX-2/CH2101: 96.1%
[5]; both, beagle, 20 mg/kg, 0.083 hr
  Plasma concentration of EX-1/NHC/CH2018: 0.148 µg/mL
[5]; both, beagle, 20 mg/kg, 0.25 hr
  Plasma concentration of EX-1/NHC/CH2018: 2.014 µg/mL
[5]; both, beagle, 20 mg/kg, 0.5 hr
  Plasma concentration of EX-1/NHC/CH2018: 3.703 µg/mL
[5]; both, beagle, 20 mg/kg, 1 hr
  Plasma concentration of EX-1/NHC/CH2018: 6.118 µg/mL
[5]; both, beagle, 20 mg/kg, 2 hr
  Plasma concentration of EX-1/NHC/CH2018: 5.958 µg/mL
[5]; both, beagle, 20 mg/kg, 4 hr
  Plasma concentration of EX-1/NHC/CH2018: 1.6 µg/mL
[5]; female, Beagle, 20 mg/kg
  AUC(0-t): 5.54 ng·h/mL
  Cmax: 0.013 µg/mL
  Tmax: 15 min
[5]; female, beagle, 10 mg/kg
  Cmax of EX-2/CH2101: 0.014 µg/mL
  Tmax of EX-2/CH2101: 60 min
  Cmax: 0.0122 µg/mL
  concentration at 0.25 hr: 0.014 µg/mL
  concentration at 1 hr: 0.0122 µg/mL
[5]; female, beagle, 20 mg/kg
  concentration at 0.25 hr: 0.013 µg/mL
  concentration at 1 hr: 0.0113 µg/mL
[5]; male, Beagle, 20 mg/kg
  AUC(0-t): 5.32 ng·h/mL
  Cmax: 0.0125 µg/mL
  Tmax: 15 min
[5]; male, beagle, 10 mg/kg
  AUC(0-t): 5.07 ng·h/mL
  Cmax: 0.0179 µg/mL
  concentration at 0.25 hr: 0.0179 µg/mL
  concentration at 0.5 hr: 0.0107 µg/mL
  Tmax: 15 min
[5]; male, beagle, 20 mg/kg
  concentration at 0.083 hr: 0.0112 µg/mL
  concentration at 0.25 hr: 0.0125 µg/mL
  concentration at 0.5 hr: 0.0105 µg/mL
[6]
  CC50 at 4 days: 18.2 µM
